Several values for one entry are separate records, joined by “and”; a condition that tells them apart may be missing. Identical values can stand only once. Toxic doses and inconclusive results are not listed.

This assay concerns L1210 leukemia ip in BDF1 mice, survival T/C. The assay is described as follows: NCI In Vivo Anticancer Drug Screen. Data for tumor model L1210 Leukemia (intraperitoneal) in B6D2F1 (BDF1) mice. As to conditions: endpoint: mean survival time, higher = longer survival. An outline of the steps: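 Read-out is survival time, reported as the treated-group measurement over the vehicle-control measurement.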

Where [1] appears, read: dose: 100.0 mg/kg/injection, schedule: Q01DX001 (ip), vehicle: saline.
Where [2] appears, read: dose: 200.0 mg/kg/injection, schedule: Q01DX001 (ip), vehicle: saline.
[3] abbreviates: dose: 100.0 mg/kg/injection, schedule: Q04DX002 (ip), vehicle: Klucel (hydroxypropylcellulose) (HPC).
The mark [4] stands for this setting: dose: 200.0 mg/kg/injection, schedule: Q04DX002 (ip), vehicle: Klucel (hydroxypropylcellulose) (HPC).
The mark [5] stands for this setting: dose: 400.0 mg/kg/injection, schedule: Q04DX002 (ip), vehicle: Klucel (hydroxypropylcellulose) (HPC).
The mark [6] stands for this setting: dose: 100.0 mg/kg/injection, schedule: Q04DX003 (ip), vehicle: Klucel (hydroxypropylcellulose) (HPC).
Setting [7] is: dose: 200.0 mg/kg/injection, schedule: Q04DX003 (ip), vehicle: Klucel (hydroxypropylcellulose) (HPC).
[8] abbreviates: dose: 100.0 mg/kg/injection, schedule: Q01DX001 (ip), vehicle: other.
Where [9] appears, read: dose: 200.0 mg/kg/injection, schedule: Q01DX001 (ip), vehicle: other.
The mark [10] stands for this setting: dose: 400.0 mg/kg/injection, schedule: Q01DX001 (ip), vehicle: other.
The mark [11] stands for this setting: dose: 400.0 mg/kg/injection, schedule: Q04DX003 (ip), vehicle: Klucel (hydroxypropylcellulose) (HPC).
[12] abbreviates: dose: 100.0 mg/kg/injection, schedule: Q04DX003 (ip), vehicle: saline with Tween-80.
Where [13] appears, read: dose: 200.0 mg/kg/injection, schedule: Q04DX003 (ip), vehicle: saline with Tween-80.
The mark [14] stands for this setting: dose: 400.0 mg/kg/injection, schedule: Q04DX003 (ip), vehicle: saline with Tween-80.

For `C/C=C/C(=O)NCC(=O)O`, the T/C under setting [1] was 90 % of control; the T/C under setting [2] was 97 % of control; the T/C (dose: 400.0 mg/kg/injection, schedule: Q01DX001 (ip), vehicle: saline) is 103 % of control.

On to `CC(C)OC(=O)Nc1cccc([N+](=O)[O-])c1`, for which the T/C under setting [3] was 105 % of control, the T/C under setting [4] was 91 % of control and the T/C under setting [5] is 97 % of control.

As for `Cc1ccc2nc(/C=C/c3ccc(N(C)C)cc3)cc(C)c2c1`, the T/C (dose: 25.0 mg/kg/injection, schedule: Q01DX Z (ip), vehicle: carboxymethylcellulose (CMC)) was 89 % of control; the T/C (dose: 100.0 mg/kg/injection, schedule: Q01DX Z (ip), vehicle: carboxymethylcellulose (CMC)) was 96 % of control; the T/C (dose: 200.0 mg/kg/injection, schedule: Q01DX Z (ip), vehicle: carboxymethylcellulose (CMC)) was 100 % of control.

Turning to `O=C1CCn2c1c(O)c1ccccc1c2=O`, the T/C reads like this: under setting [1], 97 % of control; under setting [2], 97 % of control.

Take `O[C@H](CN1CC1)[C@@H](O)CN1CC1`: the T/C is 114 % of control (dose: 0.05 mg/kg/injection, schedule: Q01DX010 (oral), vehicle: other); 111 % of control (dose: 0.05 mg/kg/injection, schedule: Q01DX010 (oral), vehicle: saline); 154 % of control (dose: 0.05 mg/kg/injection, schedule: Q01DX Z (ip), vehicle: methylcellulose (MC)); 118 % of control (dose: 0.1 mg/kg/injection, schedule: Q01DX010 (oral), vehicle: saline); 87 % of control (dose: 0.1 mg/kg/injection, schedule: Q01DX Z (ip), vehicle: methylcellulose (MC)); 101 % of control (dose: 0.1 mg/kg/injection, schedule: Q01DX Z (oral), vehicle: saline). Further, the T/C runs as follows: (dose: 0.13 mg/kg/injection, schedule: Q01DX009 (ip), vehicle: saline) 187 % of control and 192 % of control; (dose: 0.2 mg/kg/injection, schedule: Q01DX010 (oral), vehicle: other) 157 % of control; (dose: 0.25 mg/kg/injection, schedule: Q01DX009 (ip), vehicle: saline) 204 % of control and 206 % of control; (dose: 0.3 mg/kg/injection, schedule: Q01DX Z (oral), vehicle: saline) 111 % of control; (dose: 0.4 mg/kg/injection, schedule: Q01DX010 (oral), vehicle: saline) 164 % of control; (dose: 0.44 mg/kg/injection, schedule: Q01DX Z (oral), vehicle: saline) 172 % of control. For the same compound, the T/C is 221 % of control and 257 % of control (dose: 0.5 mg/kg/injection, schedule: Q01DX009 (ip), vehicle: saline); 182 % of control (dose: 0.66 mg/kg/injection, schedule: Q01DX Z (oral), vehicle: saline); 88 % of control (dose: 0.8 mg/kg/injection, schedule: Q01DX010 (oral), vehicle: other); 108 % of control (dose: 0.8 mg/kg/injection, schedule: Q01DX010 (oral), vehicle: saline); 104 % of control and 88 % of control (dose: 1.0 mg/kg/injection, schedule: Q01DX009 (ip), vehicle: saline); 121 % of control (dose: 1.0 mg/kg/injection, schedule: Q01DX Z (ip), vehicle: methylcellulose (MC)). Moreover, the T/C (dose: 1.0 mg/kg/injection, schedule: Q01DX Z (oral), vehicle: saline) is 122 % of control and the T/C (dose: 1.5 mg/kg/injection, schedule: Q01DX Z (oral), vehicle: saline) was 97 % of control.

`Cc1ccc(NC(=S)NN)cc1C`: the T/C reads like this: (dose: 50.0 mg/kg/injection, schedule: Q01DX009 (ip), vehicle: Klucel (hydroxypropylcellulose) (HPC)) 94 % of control; (dose: 100.0 mg/kg/injection, schedule: Q01DX009 (ip), vehicle: Klucel (hydroxypropylcellulose) (HPC)) 100 % of control; under setting [6], 94 % of control; under setting [7], 97 % of control.

Consider `Brc1ccc(Br)c2cnccc12`, for which the T/C under setting [8] is 93 % of control, the T/C under setting [9] was 106 % of control and the T/C under setting [10] was 104 % of control.

As to `S=P(N1CCOCC1)(N1CCOCC1)N1CCOCC1`, the T/C reads like this: under setting [3], 103 % of control; under setting [4], 89 % of control; under setting [5], 113 % of control.

Take `CCO/C(=C\[P+](c1ccccc1)(c1ccccc1)c1ccccc1)c1ccccc1`: the T/C (dose: 5.0 mg/kg/injection, schedule: Q01DX001 (ip), vehicle: saline) was 90 % of control; the T/C (dose: 10.0 mg/kg/injection, schedule: Q01DX001 (ip), vehicle: saline) was 93 % of control; the T/C (dose: 20.0 mg/kg/injection, schedule: Q01DX001 (ip), vehicle: saline) is 95 % of control; the T/C (dose: 40.0 mg/kg/injection, schedule: Q01DX001 (ip), vehicle: saline) is 95 % of control.

In the case of `O=C(Nc1ccc(Br)cc1)Nc1cc([N+](=O)[O-])ccc1F`, the T/C under setting [6] was 89 % of control, the T/C under setting [7] is 91 % of control and the T/C under setting [11] was 102 % of control.

On to `CC(=O)Nc1cc(Cl)cc(Cl)c1`, for which the T/C was 100 % of control under setting [12], 102 % of control under setting [13] and 96 % of control under setting [14].

As for `O=C(O)c1cccc(CCc2cccnc2)c1`, the T/C was 98 % of control (dose: 100.0 mg/kg/injection, schedule: Q01DX001 (ip), vehicle: saline with Tween-80); 101 % of control (dose: 200.0 mg/kg/injection, schedule: Q01DX001 (ip), vehicle: saline with Tween-80); 93 % of control (dose: 400.0 mg/kg/injection, schedule: Q01DX001 (ip), vehicle: saline with Tween-80).

With `CC([NH-])C(C)[NH-].CC([NH-])C(C)[NH-].[Cl][Co][Cl]` (stereo not given), the T/C (dose: 50.0 mg/kg/injection, schedule: Q04DX002 (ip), vehicle: saline) is 102 % of control; the T/C (dose: 100.0 mg/kg/injection, schedule: Q04DX002 (ip), vehicle: saline) is 112 % of control; the T/C (dose: 200.0 mg/kg/injection, schedule: Q04DX002 (ip), vehicle: saline) is 122 % of control.

For the compound `CC(=O)NC1CCCC(O)C1` (stereo not given), the T/C (dose: 100.0 mg/kg/injection, schedule: Q01DX009 (ip), vehicle: saline) was 87 % of control; the T/C (dose: 200.0 mg/kg/injection, schedule: Q01DX009 (ip), vehicle: saline) is 92 % of control; the T/C (dose: 400.0 mg/kg/injection, schedule: Q01DX009 (ip), vehicle: saline) is 92 % of control.

As for `CN(C)S(=O)(=O)c1ccc(N)cc1`, the T/C runs as follows: under setting [8], 91 % of control; under setting [9], 101 % of control; under setting [10], 90 % of control.

As to `CCOC(=O)Nc1cc(N)c([N+](=O)[O-])c(NC(c2ccccc2)c2ccccc2)n1`, the T/C reads like this: (dose: 100.0 mg/kg/injection, schedule: Q01DX001 (ip), vehicle: carboxymethylcellulose (CMC)) 95 % of control; (dose: 200.0 mg/kg/injection, schedule: Q01DX001 (ip), vehicle: carboxymethylcellulose (CMC)) 87 % of control; (dose: 400.0 mg/kg/injection, schedule: Q01DX001 (ip), vehicle: carboxymethylcellulose (CMC)) 92 % of control.

Turning to `O=C(/C=C(/c1ccccc1)P(=O)(c1ccccc1)c1ccccc1)c1ccccc1`, the T/C was 86 % of control (dose: 100.0 mg/kg/injection, schedule: Q01DX009 (ip), vehicle: saline with Tween-80); 89 % of control (dose: 200.0 mg/kg/injection, schedule: Q01DX009 (ip), vehicle: saline with Tween-80); 88 % of control (dose: 400.0 mg/kg/injection, schedule: Q01DX009 (ip), vehicle: saline with Tween-80).

Take `Oc1ccccc1C=NCc1ccccc1`: the T/C under setting [6] is 100 % of control, the T/C under setting [7] is 92 % of control and the T/C under setting [11] was 96 % of control.

For the compound `COC(=O)c1cc(Cl)cc(C(=O)OC)c1`, the T/C was 96 % of control under setting [12], 93 % of control under setting [13] and 93 % of control under setting [14].
